Structures are written as SMILES.

Turning to `*/C=C(/*)c1ccc(-n2c(=O)c3cc4c(=O)n(-c5ccc(C#C)cc5)c(=O)c4cc3c2=O)cc1` (repeat unit), the glass transition temperature is 420.00 °C.

In the case of `*C(=O)Nc1ccc(Oc2cccc(NC(=O)c3ccc4c(c3)C(=O)N(c3ccc(Oc5ccc(N6C(=O)c7ccc(*)cc7C6=O)cc5)cc3)C4=O)c2)cc1` (repeat unit), the glass transition temperature is 236.00 °C. `*C(=O)Nc1ccc(Oc2cccc(NC(=O)c3ccc4c(c3)C(=O)N(c3ccc(Oc5ccc6ccc(Oc7ccc(N8C(=O)c9ccc(*)cc9C8=O)cc7)cc6c5)cc3)C4=O)c2)cc1` (repeat unit) had a glass transition temperature of 263.00 °C. Compound `*C(=O)Nc1ccc(Oc2cccc(NC(=O)c3ccc4c(c3)C(=O)N(c3ccc(Oc5cccc(N6C(=O)c7ccc(*)cc7C6=O)c5)cc3)C4=O)c2)cc1` (repeat unit) showed a glass transition temperature of 211.00 °C.

Take `*C(=O)Nc1ccc(Oc2cccc(Oc3ccc(NC(=O)c4ccc5c(c4)C(=O)N(c4ccc(Oc6ccc(C7(c8ccc(Oc9ccc(N%10C(=O)c%11ccc(*)cc%11C%10=O)cc9)cc8)NC(=O)c8ccccc87)cc6)cc4)C5=O)cc3)c2)cc1` (repeat unit): the glass transition temperature was found to be 288.00 °C. The compound `*C(=O)Nc1ccc(Oc2cccc3c(NC(=O)c4ccc5c(c4)C(=O)N(c4ccc(Oc6cccc7c(N8C(=O)c9ccc(*)cc9C8=O)cccc67)cc4)C5=O)cccc23)cc1` (repeat unit) showed a glass transition temperature of 276.00 °C.

The compound `*C(=O)Nc1ccc(Oc2ccccc2-c2ccccc2Oc2ccc(NC(=O)c3ccc4c(c3)C(=O)N(c3ccc(Oc5ccc(-c6ccc(Oc7ccc(N8C(=O)c9ccc(*)cc9C8=O)cc7)cc6)cc5)cc3)C4=O)cc2)cc1` (repeat unit) registered a glass transition temperature of 239.00 °C. `*C(=O)Nc1ccc(Oc2ccccc2-c2ccccc2Oc2ccc(NC(=O)c3ccc4c(c3)C(=O)N(c3ccc(Oc5ccc(N6C(=O)c7ccc(*)cc7C6=O)cc5)cc3)C4=O)cc2)cc1` (repeat unit): the glass transition temperature was found to be 239.00 °C. With `*C(=O)Nc1ccc(Oc2ccccc2-c2ccccc2Oc2ccc(NC(=O)c3ccc4c(c3)C(=O)N(c3ccc(Oc5cccc(Oc6ccc(N7C(=O)c8ccc(*)cc8C7=O)cc6)c5)cc3)C4=O)cc2)cc1` (repeat unit), the glass transition temperature is 229.00 °C. `*C(=O)Nc1ccc(S(=O)(=O)c2ccc(NC(=O)c3ccc4c(c3)C(=O)N(c3ccc(S(=O)(=O)c5ccc(N6C(=O)c7ccc(*)cc7C6=O)cc5)cc3)C4=O)cc2)cc1` (repeat unit): the glass transition temperature is 307.00 °C. To `*C(=O)Nc1ccc(S(=O)(=O)c2ccc(NC(=O)c3ccc4c(c3)C(=O)N(c3cccc(P(=O)(c5ccccc5)c5cccc(N6C(=O)c7ccc(*)cc7C6=O)c5)c3)C4=O)cc2)cc1` (repeat unit) belongs 241.00 °C; to `*C(=O)Nc1ccc(Sc2ccc(NC(=O)c3ccc4c(c3)C(=O)N(c3ccc(Oc5ccc(N6C(=O)c7ccc(*)cc7C6=O)cc5)cc3)C4=O)cc2)cc1` (repeat unit), 284.00 °C; to `*C(=O)Nc1cccc(NC(=O)c2ccc(-c3nc4cc(*)ccc4[nH]3)cc2)c1` (repeat unit), 325.00 °C. In turn, `*C(=O)Nc1cccc(NC(=O)c2ccc3c(c2)C(=O)N(c2ccc(-c4sc(-c5ccc(N6C(=O)c7ccc(*)cc7C6=O)cc5)c(-c5ccccc5)c4-c4ccccc4)cc2)C3=O)c1` (repeat unit) yielded a glass transition temperature of 334.00 °C. Compound `*C(=O)Nc1cccc(NC(=O)c2ccc3c(c2)C(=O)N(c2ccc(S(=O)(=O)c4ccc(N5C(=O)c6ccc(*)cc6C5=O)cc4)cc2)C3=O)c1` (repeat unit) yielded a glass transition temperature of 311.00 °C.

`*C(=O)Nc1cccc(P(=O)(c2ccccc2)c2cccc(NC(=O)c3ccc4c(c3)C(=O)N(c3cccc(P(=O)(c5ccccc5)c5cccc(N6C(=O)c7ccc(*)cc7C6=O)c5)c3)C4=O)c2)c1` (repeat unit) had a glass transition temperature of 206.00 °C. `*C(=O)Nc1cccc2c(NC(=O)c3ccc4c(c3)C(=O)N(c3ccc(Oc5cccc6c(N7C(=O)c8ccc(*)cc8C7=O)cccc56)cc3)C4=O)cccc12` (repeat unit) returned a glass transition temperature of 299.00 °C.

`*C(=O)c1ccc(N(*)CCC)cc1` (repeat unit): the glass transition temperature turned out to be 136.00 °C. Turning to `*C(=O)c1ccc(N(*)CCCC)cc1` (repeat unit), the glass transition temperature amounted to 124.00 °C.

On to `*C(=O)c1ccc2c(c1)C(=O)N(c1ccc(C(=O)Nc3cccc(N4C(=O)c5ccc(*)cc5C4=O)c3)cc1)C2=O` (repeat unit), for which the glass transition temperature amounted to 311.00 °C. Turning to `*C(=O)c1ccc2c(c1)C(=O)N(c1ccc(C(=O)c3ccc(Cc4ccc(C(=O)c5ccc(N6C(=O)c7ccc(*)cc7C6=O)cc5)cc4)cc3)cc1)C2=O` (repeat unit), the glass transition temperature is 285.50 °C. `*C(=O)c1ccc2c(c1)C(=O)N(c1ccc(S(=O)(=O)c3ccc(NC(=O)c4cccc(C(=O)Nc5ccc(S(=O)(=O)c6ccc(N7C(=O)c8ccc(*)cc8C7=O)cc6)cc5)c4)cc3)cc1)C2=O` (repeat unit) had a glass transition temperature of 226.00 °C.

Take `*C(=O)c1ccc2c(c1)C(=O)N(c1cccc(C(=O)Nc3cccc(N4C(=O)c5ccc(*)cc5C4=O)c3)c1)C2=O` (repeat unit): the glass transition temperature was 287.00 °C. `*C(=O)c1ccc2c(c1)C(=O)N(c1cccc(NC(=O)c3cccc(C(=O)Nc4cccc(N5C(=O)c6ccc(*)cc6C5=O)c4)c3)c1)C2=O` (repeat unit) gave a glass transition temperature of 204.00 °C. `*CCOCCOCCOc1cccc(NC(=O)c2ccc(C(=O)Nc3cccc(O*)c3)cc2)c1` (repeat unit): the glass transition temperature amounted to 116.00 °C.

`*Nc1ccc(*)cc1OCCCCCCCCCCCCCCCC` (repeat unit) displayed a glass transition temperature of 92.00 °C.

For `*Nc1cccc(NC(=O)c2cc(C(*)=O)cc(S(=O)(=O)c3ccccc3)c2)c1` (repeat unit), the glass transition temperature was 277.00 °C. As to `*Nc1cccc(NC(=O)c2cccc(C(*)=O)c2)c1` (repeat unit), the glass transition temperature turned out to be 275.00 °C. The compound `*Nc1cccc2c(NC(=O)c3cccc(C(*)=O)c3)cccc12` (repeat unit) showed a glass transition temperature of 325.00 °C. Compound `*Nc1cnc(*)s1` (repeat unit) showed a glass transition temperature of 139.00 °C. The compound `*OC1C(C)(C)C(OC(=O)C2CCC(C(*)=O)CC2)C1(C)C` (repeat unit) returned a glass transition temperature of 169.00 °C.

Compound `*Oc1ccc(C(=O)c2ccc(C(=O)c3ccc(*)cc3)cc2)cc1` (repeat unit) showed a glass transition temperature of 157.00 °C.

Compound `*Oc1ccc(C(=O)c2cccc(NC(=O)c3ccc(C(=O)Nc4cccc(C(=O)c5ccc(*)cc5)c4)cc3)c2)cc1` (repeat unit) came in with a glass transition temperature of 189.00 °C. Next, `*Oc1ccc(C(=O)c2cccc(NC(=O)c3cccc(C(=O)Nc4cccc(C(=O)c5ccc(*)cc5)c4)c3)c2)cc1` (repeat unit): 191.00 °C; `*Oc1ccc(C(c2ccc(Oc3ccc(C(=O)c4ccc(C(c5ccc(C(=O)c6ccc(*)cc6)cc5)(C(F)(F)F)C(F)(F)F)cc4)cc3)cc2)(C(F)(F)F)C(F)(F)F)cc1` (repeat unit): 185.00 °C. As to `*Oc1ccc(Oc2ccc(C(=O)c3cccc(NC(=O)c4ccc(C(=O)Nc5cccc(C(=O)c6ccc(*)cc6)c5)cc4)c3)cc2)cc1` (repeat unit), the glass transition temperature was 210.00 °C. Turning to `*Sc1ccc(C(=O)c2ccc(C(c3ccc(C(=O)c4ccc(*)cc4)cc3)(C(F)(F)F)C(F)(F)F)cc2)cc1` (repeat unit), the glass transition temperature was determined as 175.00 °C. `*Sc1ccc(Nc2ccc(Nc3ccc(*)cc3)cc2)cc1` (repeat unit): the glass transition temperature is 114.00 °C. Next, `*c1ccc(-c2cc(-c3ccc(-c4ccccc4)cc3)cc(-c3ccc(N4C(=O)c5ccc(NC(=O)Nc6cccc7c(NC(=O)Nc8ccc9c(c8)C(=O)N(*)C9=O)cccc67)cc5C4=O)cc3)n2)cc1` (repeat unit): 254.00 °C; `*c1ccc(C(=O)Nc2cccc(-n3c(=O)c4cc5c(=O)n(*)c(=O)c5cc4c3=O)c2)cc1` (repeat unit): 390.00 °C. For the compound `*c1ccc(C(=O)Nc2cccc(Oc3ccc(S(=O)(=O)c4ccc(Oc5cccc(NC(=O)c6ccc(N7C(=O)c8ccc(-c9cccc%10c9C(=O)N(*)C%10=O)cc8C7=O)cc6)c5)cc4)cc3)c2)cc1` (repeat unit), the glass transition temperature amounted to 241.00 °C. Next, `*c1ccc(C(=O)Nc2cccc(S(=O)(=O)c3cccc(NC(=O)c4ccc(N5C(=O)c6ccc(-c7ccc8c(c7)C(=O)N(*)C8=O)cc6C5=O)cc4)c3)c2)cc1` (repeat unit): 256.00 °C. Next, `*c1ccc(NC(=O)c2cc(C(=O)Nc3ccc(S(*)(=O)=O)cc3)cc(S(=O)(=O)c3ccccc3)c2)cc1` (repeat unit): 307.00 °C. The compound `*c1ccc(NC(=O)c2cccc(C(=O)Nc3ccc(S(*)(=O)=O)cc3)c2)cc1` (repeat unit) returned a glass transition temperature of 78.00 °C. Compound `*c1ccc(Oc2cccc(NC(=O)c3cc(C(=O)Nc4cccc(Oc5ccc(-c6nnc(*)o6)cc5)c4)cc(N4C(=O)c5ccccc5C4=O)c3)c2)cc1` (repeat unit) came in with a glass transition temperature of 245.00 °C. The compound `*c1ccc2c(c1)C(=O)N(c1ccc(C(=O)Nc3ccc(Oc4ccccc4Oc4ccc(NC(=O)c5ccc(N6C(=O)c7ccc(C(*)(C(F)(F)F)C(F)(F)F)cc7C6=O)cc5)cc4)cc3)cc1)C2=O` (repeat unit) gave a glass transition temperature of 281.00 °C. With `*c1ccc2c(c1)C(=O)N(c1cccc(C(=O)Nc3ccc(Oc4ccccc4Oc4ccc(NC(=O)c5cccc(N6C(=O)c7ccc(C(*)(C(F)(F)F)C(F)(F)F)cc7C6=O)c5)cc4)cc3)c1)C2=O` (repeat unit), the glass transition temperature stood at 265.00 °C. Take `*c1cccc(NC(=O)c2ccc(OCCOCCOCCOCCOc3ccc(C(=O)Nc4ccc5[nH]c(*)nc5c4)cc3)cc2)c1` (repeat unit): the glass transition temperature worked out at 155.00 °C. Next, `*c1cccc(NC(=O)c2ccc(OCCOCCOCCOc3ccc(C(=O)Nc4ccc5[nH]c(*)nc5c4)cc3)cc2)c1` (repeat unit): 180.00 °C; `*c1cccc(NC(=O)c2ccc(OCCOCCOc3ccc(C(=O)Nc4ccc5[nH]c(*)nc5c4)cc3)cc2)c1` (repeat unit): 215.00 °C.

For the origin of these results see the PolyMetriX glass transition set.
